Laboratory results taken from patent US7128910B2, “Moraxella catarrahalis outer membrane protein-106 polypeptide, gene sequences and uses thereof” (priority 1996, dated 2006).

These substances were tested on M. catarrhalis ATCC 49143 (assay: Proteolytic digestion of intact cells followed by hemagglutination test). Conditions: intact cells digested 1 hour at room temperature.
Format: cell-based, Moraxella catarrhalis
Procedure: All proteases were obtained from Sigma Chemicals (St. Louis, Mo.). Immediately following the protease treatment, cells were washed once in PBS and resuspended in 1 ml of PBS and the hemagglutinating activity was tested. Additionally, protease-treated bacterial cells were extracted with octyl glucoside so the outer membrane proteins could be resolved to identify specific proteins that may have been digested by the proteases.

Row | Substance | Effect of protease treatment on hemagglutination activity
1 | trypsin | partially destroyed hemagglutination activity
2 | proteinase V8: Protease from Sigma Chemicals | did not affect hemagglutination activity
3 | chymotrypsin | destroyed the hemagglutination activity
